Experimental data from ChEMBL document CHEMBL1122468, “Synthesis of (7R)-7H-indolo[3,4-gh][1,4]benzoxazines, a new class of D-heteroergolines with dopamine agonist activity” (J Med Chem, 1983).

Experiments:
[1] = target: T1, Cerebral cortex alpha adrenergic receptor (Bos taurus, UniProt Q28838+P18130); experiment: In vitro affinity for alpha adrenergic receptor by displacement of 3[H]clonidine in calf cerebral cortex; type: tissue-based
T1 sequence (Q28838 whole entry): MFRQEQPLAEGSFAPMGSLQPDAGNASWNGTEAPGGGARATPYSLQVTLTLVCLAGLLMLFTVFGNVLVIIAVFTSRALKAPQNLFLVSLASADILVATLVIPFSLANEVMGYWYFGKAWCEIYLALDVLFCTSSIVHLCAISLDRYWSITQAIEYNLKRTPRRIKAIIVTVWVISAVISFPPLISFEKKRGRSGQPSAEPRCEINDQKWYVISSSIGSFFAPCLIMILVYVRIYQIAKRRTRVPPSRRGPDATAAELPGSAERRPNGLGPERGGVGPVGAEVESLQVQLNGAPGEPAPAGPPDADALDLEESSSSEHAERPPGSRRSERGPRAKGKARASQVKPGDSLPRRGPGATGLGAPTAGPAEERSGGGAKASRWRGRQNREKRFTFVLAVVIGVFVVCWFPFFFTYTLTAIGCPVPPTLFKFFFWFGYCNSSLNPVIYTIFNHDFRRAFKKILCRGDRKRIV
T1 sequence (P18130 whole entry): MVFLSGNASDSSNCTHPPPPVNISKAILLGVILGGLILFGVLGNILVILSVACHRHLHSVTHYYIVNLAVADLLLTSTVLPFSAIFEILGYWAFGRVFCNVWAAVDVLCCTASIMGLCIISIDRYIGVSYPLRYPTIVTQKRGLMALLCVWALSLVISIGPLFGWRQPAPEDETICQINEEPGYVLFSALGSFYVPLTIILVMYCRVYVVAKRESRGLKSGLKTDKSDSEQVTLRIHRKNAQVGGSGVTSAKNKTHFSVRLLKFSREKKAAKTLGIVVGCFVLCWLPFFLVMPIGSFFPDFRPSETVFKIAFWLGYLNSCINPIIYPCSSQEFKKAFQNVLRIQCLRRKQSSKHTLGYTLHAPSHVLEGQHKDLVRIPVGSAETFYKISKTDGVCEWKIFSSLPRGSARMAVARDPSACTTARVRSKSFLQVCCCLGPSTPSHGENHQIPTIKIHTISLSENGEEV

[2] = target: Dopamine receptor; experiment: In vitro affinity for dopamine receptor by displacement of [3H]- apomorphine in rat striatal membranes; type: cell membranes, Membrane
[3] = tested on: Rattus norvegicus; experiment: In vivo measure of dopaminergic activity by the induction of contralateral turning behavior in 6-hydroxydopamine (6-OHDA) lesioned rats, ip; type: functional
[4] = Rattus norvegicus, ip, read-out: ED50

| Structure (SMILES) | IC50 [1] | IC50 [2] | ED50 [3, 4] | ED50 [3] |
| --- | --- | --- | --- | --- |
| C=CCN1CCO[C@@H]2c3cccc4[nH]cc(c34)C[C@H]21 | 206 nM | 23 nM | 0.15 mg/kg | – |
| CCCCN1CCO[C@@H]2c3cccc4[nH]cc(c34)C[C@H]21 | 46 nM | 33 nM | 1.1 mg/kg | – |
| CCCN1C[C@H](CSC)C[C@@H]2c3cccc4[nH]cc(c34)C[C@H]21 [PERGOLIDE] | – | – | 0.1 mg/kg | – |
| c1cc2c3c(c[nH]c3c1)C[C@H]1NCCO[C@H]21 | 55 nM | 59.6 nM | 0.76 mg/kg | – |
| CN1CCO[C@@H]2c3cccc4[nH]cc(c34)C[C@H]21 | 27 nM | 28.9 nM | 0.18 mg/kg | – |
| CCN1CCO[C@@H]2c3cccc4[nH]cc(c34)C[C@H]21 (stereo in doubt; (-)6b) | 7 nM | 2 nM | – | 0.027 mg/kg |
| CCCN1CCO[C@@H]2c3cccc4[nH]cc(c34)C[C@H]21 | 31 nM | 2.2 nM | 0.028 mg/kg | – |
| CCN1CCO[C@@H]2c3cccc4[nH]cc(c34)C[C@H]21 (relative stereo) | 1354 nM | 1240 nM | – | >5 mg/kg |
| CCN1CCO[C@@H]2c3cccc4[nH]cc(c34)C[C@H]21 (stereo in doubt; (+)6b) | 34 nM | 219 nM | – | 7.5 mg/kg |
| CC(C)C[C@H]1C(=O)N2CCC[C@H]2[C@]2(O)O[C@](NC(=O)[C@@H]3C=C4c5cccc6[nH]c(Br)c(c56)C[C@H]4N(C)C3)(C(C)C)C(=O)N12 [BROMOCRIPTINE] | – | – | 2.8 mg/kg | – |
| CCN1CCO[C@@H]2c3cccc4[nH]cc(c34)C[C@H]21 (stereo in doubt; 6b) | 15 nM | 4.65 nM | – | 0.09 mg/kg |
